Settings: in vivo
Text: An LD₅₀ could so far not be determined.

## CC[C@H](C)[C@@H]1NC(=O)[C@H](CCCNC(=N)N)NC(=O)[C@H](CC(=O)O)NC(=O)[C@H](CCSC)NC(=O)[C@H](CCCNC(=N)N)NC(=O)CNC(=O)CNC(=O)[C@H](Cc2ccccc2)NC(=O)[C@@H](NC(=O)[C@H](CO)NC(=O)[C@H](CO)NC(=O)[C@H](CCCNC(=N)N)NC(=O)[C@H](CCCNC(=N)N)NC(=O)[C@H](CC(C)C)NC(=O)[C@@H](N)CO)CSSC[C@@H](C(=O)N[C@@H](CC(N)=O)C(=O)N[C@@H](CO)C(=O)N[C@@H](Cc2ccccc2)C(=O)N[C@@H](CCCNC(=N)N)C(=O)N[C@@H](Cc2ccc(O)cc2)C(=O)O)NC(=O)CNC(=O)[C@H](CC(C)C)NC(=O)CNC(=O)[C@H](CO)NC(=O)[C@H](CCC(N)=O)NC(=O)[C@H](C)NC(=O)CNC1=O [alpha-hANaP, alpha-human atrial natriuretic peptide]
  side-effects to the heart and circulation system, to the bronchial system, to the liver and renal functions, to the gonads, and to the central nervous system: No serious side-effects

From EP0182984B1, “Use of fully synthetic alpha-human atrial natriuretic peptide (alpha-hANap)” (PHARMA BISSENDORF PEPTIDE GMBH, priority 1984, dated 1992)
